Assay [1] in a line: Appetite suppression: high fat food consumption in fasted rats (4-Hour and 24-Hour Consumption). It is filed as in vivo, Sprague-Dawley rats. The settings on record: for reduction in effective dose of sibutramine: 30 mg/kg of telenzepine co-administered, effective dose lowered to 1 mg/kg. The source says: Appetite Suppression: Three-month-old (300-350 grams) male, Sprague-Dawley rats (individually housed) were used to assess compounds for their appetite suppressant effects. Rats were acclimatized to a “high fat” food diet (BioServ Diet #F3282 or Research Diets #12451) for two weeks prior to testing (access to food and water ad libitum). One day prior to the experiment (at 5:00 PM), food was removed from the cages in order to motivate feeding when the food was returned the following morning (water remained available throughout the experiment). Prior to presentation of the food, rats (n=8-10/dose group) were dosed intraperitoneally (ip) or orally (po) with the compound under investigation, returned to their home cage and immediately given a pre-weighed amount of food. Four hours after administration, the food was removed from the cage, weighed, recorded (4-Hour Consumption) and returned to the rat until the following morning. Twenty-four hours after administration, the remaining food was again weighed and recorded (24-Hour Consumption). Cumulative consumption (expressed in grams) was calculated for both the four and the twenty-four hour intervals. In this assay, vehicle-treated rats typically consume approximately 8 grams over the four-hour interval and approximately 25 grams over the twenty-four-hour interval.
Treatment effects are presented in Table 1 and FIGS. 1-5 (4-Hour Consumption) and Table 2 and FIGS. 6-10 (24-Hour Consumption). The effects are given as both Raw Consumption (in grams ±SEM [1 standard error of the mean]) and as % Reduction in 4-Hour or 24-Hour Consumption=[1-(Consumption following Drug Treatment/Consumption following Vehicle Treatment)]×100%. Similar superscripts in the Dose column of Tables 1 and 2 denote values derived from the same experiment (to facilitate comparisons between individual treatments and co-administrations). Statistical analyses were performed using a 1-way ANOVA (analysis of variance) followed by a Bonferroni multiple comparison test with the overall alpha set at 0.05. In Tables 1 and 2, asterisks (*) denote significant effects compared to vehicle-treated rats, while letters (a or b) denote significant effects compared to rats treated with a single compound (“a” for significance from antidepressant and “b” for significance from telenzepine). In Tables 1 and 2, one symbol denotes p<0.05, two symbols denote p<0.01 and three symbols denote p<0.001). The symbols used for denoting statistical significance may be different in the corresponding figures.

The nature of assay [2]: Reduction in weight gain of rats on a high fat diet (two-week treatment). It is filed as in vivo, Sprague-Dawley rats. The settings on record: for % Reduction: treatment minus vehicle % weight gain. The procedure: Reduction in Weight Gain: Three- to four-month-old (475-550 grams) male, Sprague-Dawley rats (individually housed) were used to assess compounds for their ability to prevent weight gain. At the onset of chronic experiments, rats had been maintained (ad libitum access) on a “high fat” diet (BioServ Diet #F3282 or Research Diets #12451) for approximately one month. Individual body weights and water consumptions were recorded three times per week throughout the duration of the experiment. After approximately two weeks of data collection, rats were counter-balanced to produce treatment groups with equivalent mean body weights. Under isofluorane-induced anesthesia, rats were surgically implanted (subscapular, subcutaneous [sc] placement) with osmotic mini-pumps (Alzet 2mL2) containing the appropriate drug concentration (based on mean body weights and calculated durations of delivery). Alternatively, for studies using the oral route of administration, rats were dosed by gavage daily over 14 days at a volume of 3 mL/kg. Data collection was continued under drug treatment for approximately two more weeks. Change in body weight (expressed in grams) was calculated for the treatment interval. In this assay, vehicle-treated rats typically gain approximately 35-40 grams (+9%) over the two-week interval. Treatment effects are presented in Table 3 as % Weight Gain=[(Body Weight at End of Drug Infusion−Baseline Body Weight)/Baseline Body Weight]×100%, for both Vehicle and Treatment groups; as well as % Reduction=(% Weight Gain for Treatment group−% Weight Gain for Vehicle group). Body weights throughout the treatment period are presented in FIGS. 11-15 as the percentage of baseline body weight. Similar superscripts in the Dose column of Table 3 denote values derived from the same experiment (to facilitate comparisons between individual treatments and co-administrations). Statistical analyses were performed using a 1-way ANOVA (analysis of variance) followed by a Bonferroni multiple comparison test with the overall alpha set at 0.05. In Table 3, asterisks (*) denote significant effects compared to vehicle-treated rats, while letters (a or b) denote significant effects compared to rats treated with a single compound (“a” for significance from antidepressant and “b” for significance from telenzepine). In Table 3, one symbol denotes p<0.05, two symbols denote p<0.01 and three symbols denote p<0.001). The symbols used for denoting statistical significance may be different in the corresponding figures.

The conditions of assay [3]: local microinjection; cited from earlier work.
Setting [4] is: 24 h, 10 mg/kg po, experiment d.

Consider 6 molecules from patent publication US8748419B2, “Treating obesity with muscarinic receptor M1 antagonists” (priority 2006, dated 2014).

For `CN(C)CCCC1(c2ccc(F)cc2)OCc2cc(C#N)ccc21` (stereo not drawn) [Citalopram, citalopram], the “Treatment Consumption” value in assay [1] (4 h, 25 mg/kg ip, experiment a) is listed as 5.3 ± 0.72 g/4 Hrs; in assay [1] (24 h, 25 mg/kg ip, experiment a) it was 23.0 ± 0.71 g/24 Hrs. Also, the “% Reduction in Consumption” value in assay [1] (4 h, 25 mg/kg ip, experiment a, 25 mg/kg) was found to be 31%; in assay [1] (4 h, 25 mg/kg ip, experiment a, listed as citalopram, 25 mg/kg) it was 31%; in assay [1] (24 h, 25 mg/kg ip, experiment a, 25 mg/kg) it was 4%; in assay [1] (24 h, 25 mg/kg ip, experiment a, listed as citalopram, 25 mg/kg), 4%. Also, the “Treatment: % Weight Gain” value in assay [2] (15 mg/kg sc, experiment a) came to 6.2 ± 1.0%. Besides, in assay [2] (15 mg/kg sc, experiment a), the “% Reduction” value is recorded as −2.4%.

Turning to `CC(C)(N)Cc1ccccc1` [Phentermine, phentermine], in assay [2] (4 mg/kg sc, experiment c), the “Treatment: % Weight Gain” value is 4.2 ± 0.6% and the “% Reduction” value is recorded as −1.1%.

For `CN[C@H]1CC[C@@H](c2ccc(Cl)c(Cl)c2)c2ccccc21` [Sertraline, sertraline], the “Treatment Consumption” value is on record as 6.0 ± 0.88 g/4 Hrs in assay [1] (4 h, 10 mg/kg ip, experiment a); 5.6 ± 0.73 g/4 Hrs in assay [1] (4 h, 30 mg/kg ip, experiment a); 23.5 ± 0.71 g/24 Hrs in assay [1] (24 h, 10 mg/kg ip, experiment a); 17.1 ± 1.60 g/24 Hrs in assay [1] (24 h, 30 mg/kg ip, experiment a). Moreover, the “% Reduction in Consumption” value in assay [1] (4 h, 10 mg/kg ip, experiment a, 10 mg/kg) was 21%; in assay [1] (4 h, 10 mg/kg ip, experiment a, listed as sertraline, 10 mg/kg), 21%; in assay [1] (4 h, 30 mg/kg ip, experiment a, 30 mg/kg), 27%; in assay [1] (4 h, 30 mg/kg ip, experiment a, listed as sertraline, 30 mg/kg), 27%; in assay [1] (24 h, 10 mg/kg ip, experiment a, 10 mg/kg), 2%; in assay [1] (24 h, 10 mg/kg ip, experiment a, listed as sertraline, 10 mg/kg), 2%. Also, the “% Reduction in Consumption” value in assay [1] (24 h, 30 mg/kg ip, experiment a, 30 mg/kg) is on record as 28%; in assay [1] (24 h, 30 mg/kg ip, experiment a, listed as sertraline, 30 mg/kg), 28%. Further, the “Treatment: % Weight Gain” value worked out at 7.2 ± 1.2% in assay [2] (5 mg/kg sc); 6.0 ± 0.8% in assay [2] (10 mg/kg sc); 2.8 ± 0.8% in assay [2] (15 mg/kg sc, experiment b); 2.8 ± 0.7% in assay [2] (20 mg/kg sc). The “% Reduction” value in assay [2] (5 mg/kg sc) is −2.1%; in assay [2] (10 mg/kg sc), −3.1%; in assay [2] (15 mg/kg sc, experiment b), −6.8%; in assay [2] (20 mg/kg sc) it was −3.5%. Also, the “reduction in body weight compared to vehicle treated rats” value in assay [2] (15 mg/kg of sertraline alone) was 6.8%.

Take `CC(C)CC(N(C)C)C1(c2ccc(Cl)cc2)CCC1` (stereo not drawn) [Sibutramine, sibutramine]: the “% Reduction in Consumption” value in assay [1] (4 h, 1 mg/kg po, experiment c) is given as 0%; in assay [1] (4 h, 1 mg/kg po, experiment d) it was 28%; in assay [1] (4 h, 3 mg/kg po, experiment c) it was 23%; in assay [1] (4 h, 3 mg/kg po, experiment d) it was 54%; in assay [1] (4 h, 10 mg/kg po, experiment d), 38%; in assay [1] (24 h, 1 mg/kg po, experiment c) it was 10%. Moreover, the “% Reduction in Consumption” value was 16% in assay [1] (24 h, 1 mg/kg po, experiment d); 28% in assay [1] (24 h, 3 mg/kg po, experiment c); 38% in assay [1] (24 h, 3 mg/kg po, experiment d); 52% in assay [1] (setting [4]). For the same molecule, the “Treatment Consumption” value in assay [1] (4 h, 1 mg/kg po, experiment c) is on record as 10.1 ± 1.24 g/4 Hrs; in assay [1] (4 h, 1 mg/kg po, experiment d), 4.9 ± 0.68 g/4 Hrs; in assay [1] (4 h, 3 mg/kg po, experiment c) it was 8.0 ± 1.29 g/4 Hrs; in assay [1] (4 h, 3 mg/kg po, experiment d), 3.2 ± 0.33 g/4 Hrs; in assay [1] (4 h, 10 mg/kg po, experiment d) it was 4.3 ± 0.61 g/4 Hrs; in assay [1] (24 h, 1 mg/kg po, experiment c), 27.4 ± 1.78 g/24 Hrs. Moreover, the “Treatment Consumption” value in assay [1] (24 h, 1 mg/kg po, experiment d) is recorded as 20.7 ± 1.05 g/24 Hrs; in assay [1] (24 h, 3 mg/kg po, experiment c), 21.9 ± 1.98 g/24 Hrs; in assay [1] (24 h, 3 mg/kg po, experiment d) it was 15.4 ± 1.22 g/24 Hrs; in assay [1] (setting [4]), 11.9 ± 1.15 g/24 Hrs. The “reduction in effective dose of sibutramine” value is reported as 3 fold in assay [1] (4 hour consumption) and 10 fold in assay [1] (24 hour consumption). Moreover, in assay [1] (given alone, oral administration required for a significant reduction), the effect on consumption result is “effective”. For the same molecule, the “Treatment: % Weight Gain” value in assay [2] (0.3 mg/kg po, experiment d) is listed as 4.7 ± 0.5%; in assay [2] (3 mg/kg po), −5.7 ± 1.2%. The “% Reduction” value in assay [2] (0.3 mg/kg po, experiment d) is listed as −1.7%; in assay [2] (3 mg/kg po) it was −6.0%. Moreover, in assay [2] (given alone), the “reduction of weight gain against vehicle treated controls (reduction from baseline)” value amounted to 6%.

Turning to `COc1ccc(C(CN(C)C)C2(O)CCCCC2)cc1` (stereo not drawn) [Venlafaxine, venlafaxine], the “Treatment Consumption” value in assay [1] (4 h, 30 mg/kg ip, experiment b) came out at 6.1 ± 0.84 g/4 Hrs; in assay [1] (24 h, 30 mg/kg ip, experiment b) it was 24.9 ± 1.52 g/24 Hrs. Also, the “% Reduction in Consumption” value in assay [1] (4 h, 30 mg/kg ip, experiment b, 30 mg/kg) amounted to 13%; in assay [1] (4 h, 30 mg/kg ip, experiment b, listed as venlafaxine, 30 mg/kg), 13%; in assay [1] (24 h, 30 mg/kg ip, experiment b, 30 mg/kg), 0%; in assay [1] (24 h, 30 mg/kg ip, experiment b, listed as venlafaxine, 30 mg/kg) it was 0%. Also, the “reduction in body weight compared to vehicle treated rats” value in assay [2] (30 mg/kg of venlafaxine alone) is given as 0.7%. In assay [2] (30 mg/kg sc, experiment b), the “Treatment: % Weight Gain” value is 7.4 ± 0.5%. Besides, the “% Reduction” value in assay [2] (30 mg/kg sc, experiment b) is −0.7%.

Regarding `CN1CCN(CC(=O)N2c3ccccc3C(=O)Nc3cccnc32)CC1` [pirenzepine, 5,11-Dihydro-11-[(4-methyl-1-piperazinyl)acetyl]-6H-pyrido[2,3-b][1,4]benzodiazepin-6-one], in assay [3], the “dopamine efflux in the striatum” value is reported as “decreased dopamine efflux”.
